Test results reported in PubChem BioAssay AID1963839 (Molecular Pharmacology Branch, DTP, NCI, 2024).

Tested on: 817829-284-R-J1-PDC complex spheroid viability
Assay: Anticancer human tumor 817829-284-R-J1-PDC patient-derived colon adenocarcinoma cell line growth inhibition [POLQ]
Details: for IC50: curve of first compound; for viability, T/C: stronger effect = lower value
How it was run: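 Patient-derived tumour cells were co-cultured with HUVEC and mesenchymal stem cells as multicellular spheroids at 37 °C. They were treated with POLQ inhibitors (novobiocin, ART-558, RP6685) alone or combined with other agents. Top concentrations were at or near clinical Cmax (otherwise 10 microM; SN-38 at 1 microM), decreasing in half-log steps.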

[1] = second compound 0.0316 µM, first compound 0.0316 µM
[2] = second compound 0.0316 µM, first compound 0.1 µM
[3] = second compound 0.1 µM, first compound 0.0316 µM
[4] = second compound 0.1 µM, first compound 0.1 µM
[5] = second compound 0.316 µM, first compound 0.0316 µM
[6] = second compound 0.316 µM, first compound 0.1 µM
[7] = second compound 1 µM, first compound 0.0316 µM
[8] = second compound 1 µM, first compound 0.1 µM
[9] = second compound 3.16 µM, first compound 0.0316 µM
[10] = second compound 3.16 µM, first compound 0.1 µM
[11] = second compound 10 µM, first compound 0.0316 µM
[12] = second compound 10 µM, first compound 0.1 µM
[13] = second compound 0.0316 µM, first compound 0.316 µM
[14] = second compound 0.0316 µM, first compound 1 µM
[15] = second compound 0.0316 µM, first compound 3.16 µM
[16] = second compound 0.0316 µM, first compound 10 µM
[17] = second compound 0.1 µM, first compound 0.316 µM
[18] = second compound 0.1 µM, first compound 1 µM
[19] = second compound 0.1 µM, first compound 3.16 µM
[20] = second compound 0.1 µM, first compound 10 µM
[21] = second compound 0.316 µM, first compound 0.316 µM
[22] = second compound 0.316 µM, first compound 1 µM
[23] = second compound 0.316 µM, first compound 3.16 µM
[24] = second compound 0.316 µM, first compound 10 µM
[25] = second compound 1 µM, first compound 0.316 µM
[26] = second compound 1 µM, first compound 1 µM
[27] = second compound 1 µM, first compound 3.16 µM
[28] = second compound 1 µM, first compound 10 µM
[29] = second compound 3.16 µM, first compound 0.316 µM
[30] = second compound 3.16 µM, first compound 1 µM
[31] = second compound 3.16 µM, first compound 3.16 µM
[32] = second compound 3.16 µM, first compound 10 µM
[33] = second compound 10 µM, first compound 0.316 µM
[34] = second compound 10 µM, first compound 1 µM
[35] = second compound 10 µM, first compound 3.16 µM
[36] = second compound 10 µM, first compound 10 µM
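Also: spheroids exposed to compounds for 7 days.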
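For viability, T/C in this document: 100% = DMSO vehicle-treated spheroids.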

Q: Which IC50 (second compound 0.0316 µM) does the source give for `CC[C@@]1(O)C(=O)OCc2c1cc1n(c2=O)Cc2cc3c(CN(C)C)c(O)ccc3nc2-1` + COC1C(OC(N)=O)C(O)C(Oc2ccc3c(O)c(NC(=O)c4ccc(O)c(CC=C(C)C)c4)c(=O)oc3c2C)OC1(C)C here?
A: 0.00486 µM

Q: And the IC50 (second compound 0.1 µM)?
A: 0.00613 µM

Q: What about the IC50 (second compound 0.316 µM) of the same compound?
A: 0.00558 µM

Q: And the IC50 (second compound 1 µM)?
A: 0.00753 µM

Q: And the IC50 (second compound 3.16 µM)?
A: 0.00795 µM

Q: What about the IC50 (second compound 10 µM) of the same compound?
A: 0.00589 µM

Q: And the viability, T/C (second compound 0.0316 µM, first compound 0.000316 µM)?
A: 80.6%

Q: And the viability, T/C (second compound 0.0316 µM, first compound 0.001 µM)?
A: 87.4%

Q: What about the viability, T/C (second compound 0.0316 µM, first compound 0.00316 µM) of the same compound?
A: 58.6%

Q: And the viability, T/C (second compound 0.0316 µM, first compound 0.01 µM)?
A: 32.5%

Q: And the viability, T/C [1]?
A: 21.7%

Q: And the viability, T/C [2]?
A: 16.1%

Q: What about the viability, T/C (second compound 0.1 µM, first compound 0.000316 µM) of the same compound?
A: 69.7%

Q: And the viability, T/C (second compound 0.1 µM, first compound 0.001 µM)?
A: 81.7%

Q: What about the viability, T/C (second compound 0.1 µM, first compound 0.00316 µM) of the same compound?
A: 76.2%

Q: And the viability, T/C (second compound 0.1 µM, first compound 0.01 µM)?
A: 30.9%

Q: What about the viability, T/C [3] of the same compound?
A: 21.4%

Q: And the viability, T/C [4]?
A: 15.7%

Q: What about the viability, T/C (second compound 0.316 µM, first compound 0.000316 µM) of the same compound?
A: 74.4%

Q: And the viability, T/C (second compound 0.316 µM, first compound 0.001 µM)?
A: 78.8%

Q: What about the viability, T/C (second compound 0.316 µM, first compound 0.00316 µM) of the same compound?
A: 57.8%

Q: What about the viability, T/C (second compound 0.316 µM, first compound 0.01 µM) of the same compound?
A: 40.8%

Q: And the viability, T/C [5]?
A: 20.1%

Q: What about the viability, T/C [6] of the same compound?
A: 17.3%

Q: And the viability, T/C (second compound 1 µM, first compound 0.000316 µM)?
A: 83.2%

Q: And the viability, T/C (second compound 1 µM, first compound 0.001 µM)?
A: 106%

Q: And the viability, T/C (second compound 1 µM, first compound 0.00316 µM)?
A: 84.1%

Q: And the viability, T/C (second compound 1 µM, first compound 0.01 µM)?
A: 38.6%

Q: And the viability, T/C [7]?
A: 20.2%

Q: And the viability, T/C [8]?
A: 16.2%

Q: What about the viability, T/C (second compound 3.16 µM, first compound 0.000316 µM) of the same compound?
A: 106%

Q: And the viability, T/C (second compound 3.16 µM, first compound 0.001 µM)?
A: 78.2%

Q: What about the viability, T/C (second compound 3.16 µM, first compound 0.00316 µM) of the same compound?
A: 99.8%

Q: And the viability, T/C (second compound 3.16 µM, first compound 0.01 µM)?
A: 38.8%

Q: And the viability, T/C [9]?
A: 20.5%

Q: And the viability, T/C [10]?
A: 18.4%

Q: What about the viability, T/C (second compound 10 µM, first compound 0.000316 µM) of the same compound?
A: 97.6%

Q: What about the viability, T/C (second compound 10 µM, first compound 0.001 µM) of the same compound?
A: 87.6%

Q: And the viability, T/C (second compound 10 µM, first compound 0.00316 µM)?
A: 69.3%

Q: And the viability, T/C (second compound 10 µM, first compound 0.01 µM)?
A: 34%

Q: What about the viability, T/C [11] of the same compound?
A: 20.6%

Q: And the viability, T/C [12]?
A: 19.1%

Q: `CCc1cc2c(N3CCc4c(cc(Cn5ccnc5)cc4-c4cn(C)nc4C(F)(F)F)C3=O)ccnc2c(OC)n1` + COC1C(OC(N)=O)C(O)C(Oc2ccc3c(O)c(NC(=O)c4ccc(O)c(CC=C(C)C)c4)c(=O)oc3c2C)OC1(C)C was tested. Which IC50 (second compound 0.0316 µM) did it give?
A: 2.92 µM

Q: What about the IC50 (second compound 0.1 µM) of the same compound?
A: 3.3 µM

Q: And the IC50 (second compound 0.316 µM)?
A: 5.17 µM

Q: What about the IC50 (second compound 1 µM) of the same compound?
A: 1.58 µM

Q: And the IC50 (second compound 3.16 µM)?
A: 6.94 µM

Q: What about the IC50 (second compound 10 µM) of the same compound?
A: 4.32 µM

Q: What about the viability, T/C [1] of the same compound?
A: 79%

Q: And the viability, T/C [2]?
A: 80.2%

Q: What about the viability, T/C [13] of the same compound?
A: 84.7%

Q: What about the viability, T/C [14] of the same compound?
A: 70%

Q: And the viability, T/C [15]?
A: 49%

Q: What about the viability, T/C [16] of the same compound?
A: 32.2%

Q: And the viability, T/C [3]?
A: 90.3%

Q: What about the viability, T/C [4] of the same compound?
A: 94%

Q: What about the viability, T/C [17] of the same compound?
A: 83.2%

Q: What about the viability, T/C [18] of the same compound?
A: 70.3%

Q: What about the viability, T/C [19] of the same compound?
A: 51.6%

Q: What about the viability, T/C [20] of the same compound?
A: 29.7%

Q: What about the viability, T/C [5] of the same compound?
A: 82.8%

Q: And the viability, T/C [6]?
A: 98.2%

Q: What about the viability, T/C [21] of the same compound?
A: 77.7%

Q: What about the viability, T/C [22] of the same compound?
A: 97.5%

Q: What about the viability, T/C [23] of the same compound?
A: 57.8%

Q: And the viability, T/C [24]?
A: 39.5%

Q: And the viability, T/C [7]?
A: 95.7%

Q: What about the viability, T/C [8] of the same compound?
A: 73%

Q: What about the viability, T/C [25] of the same compound?
A: 97.3%

Q: And the viability, T/C [26]?
A: 53.3%

Q: What about the viability, T/C [27] of the same compound?
A: 54.9%

Q: What about the viability, T/C [28] of the same compound?
A: 35.2%

Q: What about the viability, T/C [9] of the same compound?
A: 72.8%

Q: And the viability, T/C [10]?
A: 83.7%

Q: And the viability, T/C [29]?
A: 89.4%

Q: And the viability, T/C [30]?
A: 68.3%

Q: What about the viability, T/C [31] of the same compound?
A: 63.7%

Q: What about the viability, T/C [32] of the same compound?
A: 44.2%

Q: And the viability, T/C [11]?
A: 104%

Q: And the viability, T/C [12]?
A: 82.2%

Q: And the viability, T/C [33]?
A: 75.2%

Q: And the viability, T/C [34]?
A: 75.2%

Q: What about the viability, T/C [35] of the same compound?
A: 57%

Q: What about the viability, T/C [36] of the same compound?
A: 35.2%

Q: For `C=CC(=O)N1CCN(c2nc(=O)n(-c3c(C)ccnc3C(C)C)c3nc(-c4c(O)cccc4F)c(F)cc23)C(C)C1` (stereo unspecified) + Cc1cccc(N(C)C(=O)C2C(O)CCN2c2nc(C)cc(C(F)(F)F)c2C#N)c1, which IC50 (second compound 0.0316 µM) is on record?
A: 9.4 µM

Q: And the IC50 (second compound 0.1 µM)?
A: 9.47 µM

Q: What about the IC50 (second compound 0.316 µM) of the same compound?
A: 9.09 µM

Q: And the IC50 (second compound 1 µM)?
A: 7.8 µM

Q: And the IC50 (second compound 3.16 µM)?
A: 7.29 µM

Q: And the IC50 (second compound 10 µM)?
A: > 10 µM

Q: What about the viability, T/C [1] of the same compound?
A: 94.4%

Q: And the viability, T/C [2]?
A: 140%

Q: What about the viability, T/C [13] of the same compound?
A: 112%

Q: And the viability, T/C [14]?
A: 105%

Q: What about the viability, T/C [15] of the same compound?
A: 82.7%

Q: And the viability, T/C [16]?
A: 48%

Q: And the viability, T/C [3]?
A: 91.1%

Q: And the viability, T/C [4]?
A: 109%

Q: What about the viability, T/C [17] of the same compound?
A: 104%

Q: What about the viability, T/C [18] of the same compound?
A: 110%

Q: And the viability, T/C [19]?
A: 86.3%

Q: And the viability, T/C [20]?
A: 48.2%

Q: What about the viability, T/C [5] of the same compound?
A: 92.2%

Q: And the viability, T/C [6]?
A: 109%

Q: What about the viability, T/C [21] of the same compound?
A: 108%

Q: What about the viability, T/C [22] of the same compound?
A: 83.5%

Q: What about the viability, T/C [23] of the same compound?
A: 83.1%

Q: What about the viability, T/C [24] of the same compound?
A: 46.9%

Q: And the viability, T/C [7]?
A: 92.9%

Q: And the viability, T/C [8]?
A: 91.2%

Q: What about the viability, T/C [25] of the same compound?
A: 112%

Q: What about the viability, T/C [26] of the same compound?
A: 99%

Q: And the viability, T/C [27]?
A: 86.4%

Q: What about the viability, T/C [28] of the same compound?
A: 39.9%

Q: And the viability, T/C [9]?
A: 113%

Q: What about the viability, T/C [10] of the same compound?
A: 125%

Q: And the viability, T/C [29]?
A: 87.8%

Q: What about the viability, T/C [30] of the same compound?
A: 89.3%

Q: And the viability, T/C [31]?
A: 76.3%

Q: And the viability, T/C [32]?
A: 39.9%

Q: And the viability, T/C [11]?
A: 89.4%

Q: And the viability, T/C [12]?
A: 104%

Q: And the viability, T/C [33]?
A: 84%

Q: And the viability, T/C [34]?
A: 113%

Q: And the viability, T/C [35]?
A: 66.9%

Q: And the viability, T/C [36]?
A: 54.9%
